Assay results: ChEMBL document CHEMBL3286379, “Design and synthesis of pyrimidine molecules endowed with thiazolidin-4-one as new anticancer agents” (Eur J Med Chem, 2014)

Assays:
[1] = Growth inhibition of human OVCAR4 cells after 48 hrs by sulforhodamine B assay; type: functional; details: OVCAR-4, 48 h
U-251 = experiment: Growth inhibition of human U251 cells after 48 hrs by sulforhodamine B assay; type: functional; details: U-251, 48 h
SR = experiment: Growth inhibition of human SR cells after 48 hrs by sulforhodamine B assay; type: functional
T47D = experiment: Growth inhibition of human T47D cells after 48 hrs by sulforhodamine B assay; type: functional
[2] = Growth inhibition of human HCT15 cells after 48 hrs by sulforhodamine B assay; type: functional; details: HCT-15, 48 h
SK-OV-3 = experiment: Growth inhibition of human SKOV3 cells after 48 hrs by sulforhodamine B assay; type: functional; details: SK-OV-3, 48 h
MDA-MB-231 = experiment: Growth inhibition of human MDA-MB-231 cells after 48 hrs by sulforhodamine B assay; type: functional; details: MDA-MB-231, 48 h
CAKI-1 = experiment: Growth inhibition of human CAKI-1 cells after 48 hrs by sulforhodamine B assay; type: functional; details: CAKI-1, 48 h
COLO 205 = experiment: Growth inhibition of human COLO205 cells after 48 hrs by sulforhodamine B assay; type: functional; details: COLO 205, 48 h
SF-268 = experiment: Growth inhibition of human SF268 cells after 48 hrs by sulforhodamine B assay; type: functional; details: SF-268, 48 h
NCI-H322M = experiment: Growth inhibition of human NCI-H322M cells after 48 hrs by sulforhodamine B assay; type: functional
HL-60(TB) = experiment: Growth inhibition of human HL-60(TB) cells after 48 hrs by sulforhodamine B assay; type: functional; details: HL-60, 48 h
[3] = Growth inhibition of human UACC257 cells after 48 hrs by sulforhodamine B assay; type: functional; details: UACC-257, 48 h
NCI-H226 = experiment: Growth inhibition of human NCI-H226 cells after 48 hrs by sulforhodamine B assay; type: functional; details: NCI-H226, 48 h
CCRF-CEM = experiment: Growth inhibition of human CCRF-CEM cells after 48 hrs by sulforhodamine B assay; type: functional
SW-620 = experiment: Growth inhibition of human SW620 cells after 48 hrs by sulforhodamine B assay; type: functional; details: SW-620, 48 h
Rattus norvegicus = experiment: Hepatotoxicity in rat assessed as SGOT level at 0.12 mg/kg, po after 12 days (reference value: 140.23 +/- 1.39 U/mL); type: toxicity, organism-based; design: dose 0.12 mg/kg, route oral; details: in vivo, 288 h
HCT-116 = experiment: Growth inhibition of human HCT116 cells after 48 hrs by sulforhodamine B assay; type: functional; details: HCT-116, 48 h
MCF7 = experiment: Growth inhibition of human MCF7 cells after 48 hrs by sulforhodamine B assay; type: functional; details: MCF7, 48 h
A498 = experiment: Growth inhibition of human A498 cells after 48 hrs by sulforhodamine B assay; type: functional; details: A498, 48 h
HT-29 = experiment: Growth inhibition of human HT-29 cells after 48 hrs by sulforhodamine B assay; type: functional; details: HT-29, 48 h
[4] = read-out: LC50 (the source's name)
[5] = read-out: pLC50 (the source's name) (converted)

With `Nc1nc(-c2ccccc2Cl)cc(-c2ccc(Cl)cc2Cl)n1` the GI50 [1] was 12 µM, the CC50 [1, 4] was > 100 µM and the CC50 [1, 5] was > 100 µM. The TGI ([1]; read-out: pTGI (converted)) was 89.1 µM, the GI50 (U-251; read-out: GI50) was 11.1 µM and the CC50 (U-251; [4]) was > 100 µM. The TGI (U-251; read-out: TGI) was > 100 µM, the GI50 (U-251; read-out: pGI50 (converted)) was 11.2 µM and the CC50 (U-251; [5]) was > 100 µM. The TGI (U-251; read-out: pTGI) was > 100 µM, the GI50 (SR; read-out: GI50) was 4.1 µM and the CC50 (SR; [4]) was > 100 µM. The TGI (SR; read-out: TGI) was > 100 µM, the GI50 (SR; read-out: pGI50 (converted)) was 4.07 µM and the CC50 (SR; [5]) was > 100 µM. For the same compound, the TGI (SR; read-out: pTGI) was > 100 µM, the GI50 (T47D; read-out: GI50) was 6.58 µM and the CC50 (T47D; [4]) was > 100 µM. For the same compound, the TGI (T47D; read-out: TGI) was > 100 µM, the GI50 (T47D; read-out: pGI50 (converted)) was 6.61 µM and the CC50 (T47D; [5]) was > 100 µM. The TGI (T47D; read-out: pTGI) was > 100 µM, the GI50 ([2]; read-out: GI50) was 5.09 µM and the CC50 [2, 4] was > 100 µM. For the same compound, the TGI ([2]; read-out: TGI) was > 100 µM, the GI50 ([2]; read-out: pGI50 (converted)) was 5.13 µM and the CC50 [2, 5] was > 100 µM. The TGI ([2]; read-out: pTGI) was > 100 µM, the GI50 (SK-OV-3; read-out: GI50) was 10.1 µM and the CC50 (SK-OV-3; [4]) was > 100 µM. For the same compound, the TGI (SK-OV-3; read-out: TGI) was 62.3 µM, the GI50 (SK-OV-3; read-out: pGI50 (converted)) was 10 µM and the CC50 (SK-OV-3; [5]) was > 100 µM. For the same compound, the TGI (SK-OV-3; read-out: pTGI (converted)) was 61.7 µM, the GI50 (MDA-MB-231; read-out: GI50) was 9.3 µM and the CC50 (MDA-MB-231; [4]) was > 100 µM. For the same compound, the TGI (MDA-MB-231; read-out: TGI) was > 100 µM, the GI50 (MDA-MB-231; read-out: pGI50 (converted)) was 9.33 µM and the CC50 (MDA-MB-231; [5]) was > 100 µM. For the same compound, the TGI (MDA-MB-231; read-out: pTGI) was > 100 µM, the GI50 (CAKI-1; read-out: GI50) was 9.27 µM and the CC50 (CAKI-1; [4]) was > 100 µM. For the same compound, the TGI (CAKI-1; read-out: TGI) was > 100 µM, the GI50 (CAKI-1; read-out: pGI50 (converted)) was 9.33 µM and the CC50 (CAKI-1; [5]) was > 100 µM. For the same compound, the TGI (CAKI-1; read-out: pTGI) was > 100 µM, the GI50 (COLO 205; read-out: GI50) was 3.52 µM and the CC50 (COLO 205; [4]) was 53 µM. It also gave a TGI (COLO 205; read-out: TGI) of 15.5 µM, a GI50 (COLO 205; read-out: pGI50 (converted)) of 3.55 µM and a CC50 (COLO 205; [5]) of 52.5 µM. The TGI (COLO 205; read-out: pTGI (converted)) was 15.5 µM, the GI50 (SF-268; read-out: GI50) was 5.01 µM and the CC50 (SF-268; [4]) was > 100 µM. The TGI (SF-268; read-out: TGI) was 81.6 µM, the GI50 (SF-268; read-out: pGI50 (converted)) was 5.01 µM and the CC50 (SF-268; [5]) was > 100 µM. For the same compound, the TGI (SF-268; read-out: pTGI (converted)) was 81.3 µM, the GI50 (NCI-H322M; read-out: GI50) was 31.2 µM and the CC50 (NCI-H322M; [4]) was > 100 µM. For the same compound, the TGI (NCI-H322M; read-out: TGI) was > 100 µM, the GI50 (NCI-H322M; read-out: pGI50 (converted)) was 30.9 µM and the CC50 (NCI-H322M; [5]) was > 100 µM. For the same compound, the TGI (NCI-H322M; read-out: pTGI) was > 100 µM, the GI50 (HL-60(TB); read-out: GI50) was 3.14 µM and the CC50 (HL-60(TB); [4]) was > 100 µM. For the same compound, the TGI (HL-60(TB); read-out: TGI) was 17.3 µM, the GI50 (HL-60(TB); read-out: pGI50 (converted)) was 3.16 µM and the CC50 (HL-60(TB); [5]) was > 100 µM. For the same compound, the TGI (HL-60(TB); read-out: pTGI (converted)) was 17.4 µM, the GI50 ([3]; read-out: GI50) was 11.9 µM and the CC50 [3, 4] was > 100 µM. The TGI ([3]; read-out: TGI) was 55.2 µM, the GI50 ([3]; read-out: pGI50 (converted)) was 11.7 µM and the CC50 [3, 5] was > 100 µM. The TGI ([3]; read-out: pTGI (converted)) was 55 µM, the GI50 (NCI-H226; read-out: GI50) was 81.1 µM and the CC50 (NCI-H226; [4]) was > 100 µM. For the same compound, the TGI (NCI-H226; read-out: TGI) was > 100 µM, the GI50 (NCI-H226; read-out: pGI50 (converted)) was 18.2 µM and the CC50 (NCI-H226; [5]) was > 100 µM. The TGI (NCI-H226; read-out: pTGI) was > 100 µM, the GI50 (CCRF-CEM; read-out: GI50) was 4.17 µM and the CC50 (CCRF-CEM; [4]) was > 100 µM. The TGI (CCRF-CEM; read-out: TGI) was > 100 µM, the GI50 (CCRF-CEM; read-out: pGI50 (converted)) was 4.17 µM and the CC50 (CCRF-CEM; [5]) was > 100 µM. For the same compound, the TGI (CCRF-CEM; read-out: pTGI) was > 100 µM, the GI50 (SW-620; read-out: GI50) was 3.41 µM and the CC50 (SW-620; [4]) was > 100 µM. For the same compound, the TGI (SW-620; read-out: TGI) was > 100 µM, the GI50 (SW-620; read-out: pGI50 (converted)) was 3.39 µM and the CC50 (SW-620; [5]) was > 100 µM. For the same compound, the TGI (SW-620; read-out: pTGI) was > 100 µM, the Activity (Rattus norvegicus) was 133.47 U/ml and the GI50 (HCT-116; read-out: GI50) was 4.27 µM. For the same compound, the CC50 (HCT-116; [4]) was > 100 µM, the TGI (HCT-116; read-out: TGI) was > 100 µM and the GI50 (HCT-116; read-out: pGI50 (converted)) was 4.27 µM. For the same compound, the CC50 (HCT-116; [5]) was > 100 µM, the TGI (HCT-116; read-out: pTGI) was > 100 µM and the GI50 (MCF7; read-out: GI50) was 3.45 µM. For the same compound, the CC50 (MCF7; [4]) was > 100 µM, the TGI (MCF7; read-out: TGI) was > 100 µM and the GI50 (MCF7; read-out: pGI50 (converted)) was 3.47 µM. The CC50 (MCF7; [5]) was > 100 µM, the TGI (MCF7; read-out: pTGI) was > 100 µM and the GI50 (A498; read-out: GI50) was 3.34 µM. For the same compound, the CC50 (A498; [4]) was > 100 µM, the TGI (A498; read-out: TGI) was 22.8 µM and the GI50 (A498; read-out: pGI50 (converted)) was 3.31 µM. For the same compound, the CC50 (A498; [5]) was > 100 µM, the TGI (A498; read-out: pTGI (converted)) was 22.9 µM and the GI50 (HT-29; read-out: GI50) was 4.32 µM. The CC50 (HT-29; [4]) was > 100 µM, the TGI (HT-29; read-out: TGI) was 24.3 µM and the GI50 (HT-29; read-out: pGI50 (converted)) was 4.37 µM. For the same compound, the CC50 (HT-29; [5]) was > 100 µM and the TGI (HT-29; read-out: pTGI (converted)) was 24.5 µM.
